Patent US11596639B2, “Substituted indole Mcl-1 inhibitors” (Vanderbilt University, priority 2016, dated 2023)

What was measured:
Mcl-1 = Mcl-1 (Homo sapiens (Human), UniProt Q07820); assay: TR-FRET binding assay, FITC-Bak peptide and MBP-tagged Mcl-1; details: read-out: Ki for Inhibition of Mcl-1 by TR-FRET assay
Experimental: Compounds are diluted in DMSO in a 16-point, semilog serial dilution scheme. […] The plate was mixed and incubated for 3 hours at room temperature. […] TR-FRET signal is plotted and IC50 and Ki values are calculated in the same manner as the fluorescence polarization anisotropy based competition assays.

[1] = tested on: H929 human cancer cell lines; assay: Cellular viability / proliferation (Cell TiterGlo, 72 h); format: cell-based; details: Homo sapiens, NCI-H929, 72 h, read-out: GI50 on cellular proliferation of H929 human cancer cell lines, H929 cells, 72 h, Cell TiterGlo, 10% FBS
Outline: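 Cells were seeded at 1,000 cells/well in medium with 10% FBS and dosed 24 h later with a 2-fold serial dilution of compound (top concentration 50 μM, final DMSO <1%).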

Mcl-1, sequence (Q07820 172-327): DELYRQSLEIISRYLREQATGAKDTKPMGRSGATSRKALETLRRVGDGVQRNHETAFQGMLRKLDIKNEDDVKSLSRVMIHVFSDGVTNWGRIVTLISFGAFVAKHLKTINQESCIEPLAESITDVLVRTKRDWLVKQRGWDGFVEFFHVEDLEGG

| Structure (SMILES) | Ki (Mcl-1) [nM] | GI50 [1] [nM] |
| --- | --- | --- |
| Cc1cc(OCCCc2c3n(c4c(-c5c(C)nn(C)c5C)c(Cl)ccc24)[C@H](C)CN(c2cn(C)c4ncc(C(=O)O)cc24)C3=O)cc(C)c1Cl [Example 575, (R)-3-(7-chloro-10-(3-(4-chloro-3,5-dimethylphenoxy)propyl)-4-methyl-1-oxo-6-(1,3,5-trimethyl-1H-pyrazol-4-yl)-3,4-dihydropyrazino[1,2-a]indol-2(1H)-yl)-1-methyl-1H-pyrrolo[2,3-b]pyridine-5-carboxylic acid] | < 0.2 | 740 |
| COCCOc1cc(N2C[C@@H](C)n3c(c(CCCOc4cc(C)c(Cl)c(C)c4)c4ccc(Cl)c(-c5c(C)nn(C)c5C)c43)C2=O)c2c(c1)cc(C(=O)O)n2Cc1ccccn1 [Example 537, (R)-7-(7-Chloro-10-(3-(4-chloro-3,5-dimethylphenoxy)propyl)-4-methyl-1-oxo-6-(1,3,5-trimethyl-1H-pyrazol-4-yl)-3,4-dihydropyrazino[1,2-a]indol-2(1H)-yl)-5-(2-methoxyethoxy)-1-(pyridin-2-ylmethyl)-1H-indole-2-carboxylic acid] | < 0.2 | < 200 |
| COCCn1cc(N2C[C@@H](C)n3c(c(CCCOc4cc(C)c(Cl)c(C)c4)c4ccc(Cl)c(-c5c(C)nn(C)c5C)c43)C2=O)c2cc(-c3ncn(C)n3)ccc21 [Example 524, (R)-7-Chloro-10-(3-(4-chloro-3,5-dimethylphenoxy)propyl)-2-(1-(2-methoxyethyl)-5-(1-methyl-1H-1,2,4-triazol-3-yl)-1H-indol-3-yl)-4-methyl-6-(1,3,5-trimethyl-1H-pyrazol-4-yl)-3,4-dihydropyrazino[1,2-a]indol-1(2H)-one] | 0.28 | 220 |
| COc1ccc(N2C[C@@H](C)n3c(c(CCCOc4cc(C)c(Cl)c(C)c4)c4ccc(Cl)c(-c5c(C)nc(CN(C)C)nc5C)c43)C2=O)c2c1cc(C(=O)O)n2Cc1ccccn1 [Example 482, (R)-7-(7-Chloro-10-(3-(4-chloro-3,5-dimethylphenoxy)propyl)-6-(2-((dimethylamino)methyl)-4,6-dimethylpyrimidin-5-yl)-4-methyl-1-oxo-3,4-dihydropyrazino[1,2-a]indol-2(1H)-yl)-4-methoxy-1-(pyridin-2-ylmethyl)-1H-indole-2-carboxylic acid] | < 0.2 | 340 |
| COCCOc1cc(N2C[C@@H](C)n3c(c(CCCOc4cc(C)c(Cl)c(C)c4)c4ccc(Cl)c(-c5c(C)nn(C)c5C)c43)C2=O)c2c(c1)c(C(=O)O)cn2C [Example 654, (R)-7-(7-chloro-10-(3-(4-chloro-3,5-dimethylphenoxy)propyl)-4-methyl-1-oxo-6-(1,3,5-trimethyl-1H-pyrazol-4-yl)-3,4-dihydropyrazino[1,2-a]indol-2(1H)-yl)-5-(2-methoxyethoxy)-1-methyl-1H-indole-3-carboxylic acid] | 0.34 | 340 |
| Cc1cc(OCCCc2c3n(c4c(-c5c(C)nn(C)c5C)c(Cl)ccc24)[C@H](C)CN(c2cc(NC(=O)CCN4CCN(C)CC4)cc4c(C(=O)O)cn(C)c24)C3=O)cc(C)c1Cl [Example 551, (R)-7-(7-chloro-10-(3-(4-chloro-3,5-dimethylphenoxy)propyl)-4-methyl-1-oxo-6-(1,3,5-trimethyl-1H-pyrazol-4-yl)-3,4-dihydropyrazino[1,2-a]indol-2(1H)-yl)-1-methyl-5(3-(4-methylpiperazin-1-yl)propanamido)-1H-indole-3-carboxylic acid] | 0.3 |  |
| Cc1cc(OCCCc2c3n(c4c(-c5c(C)nn(C)c5C)c(Cl)ccc24)[C@H](C)CN(c2cc(N(C)C(=O)CN4CCN(C)CC4)cc4c(C(=O)O)cn(C)c24)C3=O)cc(C)c1Cl [Example 604, (R)-7-(7-chloro-10-(3-(4-chloro-3,5-dimethylphenoxy)propyl)-4-methyl-1-oxo-6-(1,3,5-trimethyl-1H-pyrazol-4-yl)-3,4-dihydropyrazino[1,2-a]indol-2(1H)-yl)-t-methyl-5-(N-methyl-2-(4-methylpiperazin-1-yl)acetamido)-1H-indole-3-carboxylic acid] | 0.73 |  |
| Cc1cc(OCCCc2c3n(c4c(-c5c(C)nn(C)c5C)c(Cl)ccc24)[C@H](C)CN(c2cc(N(C)C(=O)CN(C)C)cc4c(C(=O)O)cn(C)c24)C3=O)cc(C)c1Cl [Example 611, (R)-7-(7-chloro-10-(3-(4-chloro-3,5-dimethylphenoxy)propyl)-4-methyl-1-oxo-6-(1,3,5-trimethyl-1H-pyrazol-4-yl)-3,4-dihydropyrazino[1,2-a]indol-2(1H)-yl)-5-(2-(dimethylamino)-N-methylacetamido)-1-methyl-1H-indole-3-carboxylic acid] | 1.1 |  |
| COCCn1c(C(=O)O)cc2cc(C)cc(N3C[C@@H](C)n4c(c(CCCOc5cc(C)c(Cl)c(C)c5)c5ccc(Cl)c(-c6c(C)nn(C)c6C)c54)C3=O)c21 [Example 709, (M, R)-7-(7-chloro-10-(3-(4-chloro-3,5-dimethylphenoxy)propyl)-4-methyl-1-oxo-6-(1,3,5-trimethyl-1H-pyrazol-4-yl)-3,4-dihydropyrazino[1,2-a]indol-2(1H)-yl)-1-(2-methoxyethyl)-5-methyl-1H-indole-2-carboxylic acid] | < 0.2 |  |
| Cc1cc(OCCCc2c3n(c4c(-c5c(C)nn(C)c5C)c(Cl)ccc24)[C@H](C)CN(c2ccc4ccc(C(=O)O)nc4c2)C3=O)cc(C)c1Cl [Example 666, (R)-7-(7-chloro-10-(3-(4-chloro-3,5-dimethylphenoxy)propyl)-4-methyl-1-oxo-6-(1,3,5-trimethyl-1H-pyrazol-4-yl)-3,4-dihydropyrazino[1,2-a]indol-2(1H)-yl)quinoline-2-carboxylic acid] | 7.2 |  |
| COCCOc1cc(N2C[C@@H](C)n3c(c(CCCOc4cc(C)c(Cl)c(C)c4)c4ccc(Cl)c(-c5c(C)nn(C)c5C)c43)C2=O)c2c(c1)cc(C(=O)O)n2C [Example 712, (P, R)-7-(7-chloro-10-(3-(4-chloro-3,5-dimethylphenoxy)propyl)-4-methyl-1-oxo-6-(1,3,5-trimethyl-1H-pyrazol-4-yl)-3,4-dihydropyrazino[1,2-a]indol-2(1H)-yl)-5-(2-methoxyethoxy)-1-methyl-1H-indole-2-carboxylic acid] | < 0.2 |  |
| Cc1cc(OCCCc2c3n(c4c(-c5c(C)nn(C)c5C)c(Cl)ccc24)[C@H](C)CN(c2cc(CN4CCC(Oc5ccc(Cl)cc5)CC4)cc4c(C(=O)O)cn(C)c24)C3=O)cc(C)c1Cl [Example 547, (R)-7-(7-chloro-10-(3-(4-chloro-3,5-dimethylphenoxy)propyl)-4-methyl-t-oxo-6-(1,3,5-trimethyl-1H-pyrazol-4-yl)-3,4-dihydropyrazino[1,2-a]indol-2(1H)-yl)-5-((4-(4-chlorophenoxy)piperidin-1-yl)methyl)-1-methyl-1H-indole-3-carboxylic acid] | 10 |  |
| COCCOc1cc(N2C[C@@H](C)n3c(c(CCCOc4cc(C)c(Cl)c(C)c4)c4ccc(Cl)c(-c5c(C)nn(C)c5C)c43)C2=O)c2c(c1)cc(C(=O)O)n2C [Example 711, (M, R)-7-(7-chloro-10-(3-(4-chloro-3,5-dimethylphenoxy)propyl)-4-methyl-1-oxo-6-(1,3,5-trimethyl-1H-pyrazol-4-yl)-3,4-dihydropyrazino[1,2-a]indol-2(1H)-yl)-5-(2-methoxyethoxy)-1-methyl-1H-indole-2-carboxylic acid] | < 0.2 |  |
